Reference: publication PMC5608352, “Formyl peptide derived lipopeptides disclose differences between the receptors in mouse and men and call the pepducin concept in question” (PLoS ONE, 2017)
“Also recorded” adds a separate entry of the source. Residues, ends and D or L forms follow the SMILES beside them. *: point of attachment. Palmitoyl = CCCCCCCCCCCCCCCC(=O)*

Columns and labels:
Assay type in all cases: cell-based
mouse neutrophils = target: T1, mouse neutrophils (Mus musculus, UniProt O88536); experiment: Direct activation: superoxide release (isoluminol/HRP chemiluminescence), WT mouse bone marrow neutrophils; settings: WT mouse (C57BL/6) bone marrow neutrophils, TNF-α primed, 5 x 10^4 cells, 37°C, isoluminol/HRP CL, peak activity; pepducin 1 μM in figures
T1 sequence (O88536 1-351): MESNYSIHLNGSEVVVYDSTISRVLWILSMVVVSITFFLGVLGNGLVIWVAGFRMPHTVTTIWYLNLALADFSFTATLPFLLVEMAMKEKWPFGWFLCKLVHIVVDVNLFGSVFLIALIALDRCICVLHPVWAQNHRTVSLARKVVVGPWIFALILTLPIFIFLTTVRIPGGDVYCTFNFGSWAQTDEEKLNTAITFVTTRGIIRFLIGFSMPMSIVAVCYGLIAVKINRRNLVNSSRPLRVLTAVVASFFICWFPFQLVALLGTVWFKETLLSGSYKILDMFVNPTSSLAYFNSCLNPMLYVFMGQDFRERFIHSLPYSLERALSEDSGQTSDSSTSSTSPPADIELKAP
From the text: (§1) Mice (8–12 weeks of age) were killed by cervical dislocation, the femurs and tibias were removed and freed of soft tissue attachments, and the extreme distal tip of each extremity was cut off. KRG without Ca^2+ and Mg^2+ (KRG-) was forced through the bone by using a 1-mL syringe with a 27-gauge needle. After dispersing cell clumps and removing the debris, the bone marrow granulocytes were isolated according to an earlier described procedure with some modifications. Briefly, a cell suspension in 2 mL of KRG- was laid on top of a three-layer Percoll gradient (1.095, 1.085, and 1.070 g/mL). The density of each Percoll solution was verified using density marker beads. After centrifugation at 500 × g for 30 min at 4°C in a swinging bucket rotor, the lowest band (1.085/1.095 g/mL interface) was collected as the neutrophil fraction. After washing with KRG-, remaining red blood cells were eliminated by hypotonic lysis. After a final wash with KRG-, the cells were resuspended in KRG. The cell number and population of bone marrow cells were determined by flow cytometry based on forward scatter (size) and side scatter (density) localization.
NADPH-oxidase activity was determined using an isoluminol and HRP-enhanced chemiluminescence (CL) system that allow for the determination of superoxide production. The CL activity was measured in a six-channel Biolumat LB 9505 apparatus (Berthold Co., Wildbad, Germany), using disposable 4-mL polypropylene tubes with 1 mL reaction mixture. The tubes contained 4 U HRP and 10 μg/mL isoluminol together with the cells that were equilibrated in the Biolumat for 5 min at 37°C, after which the stimulus solution (100 μL) was added. The light emission was recorded continuously over time and presented as superoxide production (in arbitrary light units, cpm x10^-6) as a function of time (min). The activity before stimulus addition was recorded as basal line and this activity was not changed in vehicle control samples. Since the FPR/Fpr-mediated superoxide production with respect to the onset and decline are very similar, the peak activities were used to compare the responses induced.
Naïve bone marrow cells produce very low levels of superoxide upon stimulation and to increase this production the cells were routinely primed for one hour at RT followed by TNF-α (10 ng/mL, final concentration) priming for a period of 20 min at 37°C [10]. The cells were then kept on ice until further analysis, as described above. The reason for choosing the chemiluminescence based NADPH-oxidase assay system was that very few cells are required, allowing us to monitor and quantify receptor-mediated events with the limited number of mouse bone marrow neutrophils available.
Data analysis was performed using Graph Pad Prism 7.0. The EC50/IC50 values were determined from experiments in which the activities were normalized to the response induced by maximal response or induced by agonist in the absence of inhibitor. The statistical analysis was performed on raw data using Student’s t-test when two groups were compared or one-way ANOVA with Dunnett’s multiple comparisons test in comparison to the control response when three groups were compared. * p ≤ 0.05 was considered significant.

human neutrophils = experiment: Direct activation: superoxide release (isoluminol/HRP chemiluminescence), human neutrophils; settings: 10^5 cells, 37°C, isoluminol/HRP CL, pepducin 1 μM
From the text: (§2) Human peripheral blood neutrophils were isolated from buffy coats from healthy blood donors using dextran sedimentation and Ficoll-Paque gradient centrifugation as described. The remaining erythrocytes were disrupted by hypotonic lysis and the neutrophils were washed twice, suspended in KRG and, stored on melting ice until use. This isolation process permits cells to be purified with minimal granule mobilization. The buffy coats were obtained from the blood bank at Sahlgrenska University Hospital. Ethics approval was not needed since the buffy coats were provided anonymously and could not be traced back to a specific individual. This is in line with Swedish legislation section code 4§ 3p SFS 2003:460 (Lag om etikprövning av forskning som avser människor).
(§3) NADPH-oxidase activity was determined using an isoluminol and HRP-enhanced chemiluminescence (CL) system that allow for the determination of superoxide production. The CL activity was measured in a six-channel Biolumat LB 9505 apparatus (Berthold Co., Wildbad, Germany), using disposable 4-mL polypropylene tubes with 1 mL reaction mixture. […] The light emission was recorded continuously over time and presented as superoxide production (in arbitrary light units, cpm x10^-6) as a function of time (min). The activity before stimulus addition was recorded as basal line and this activity was not changed in vehicle control samples. […]

FPR2 [1] = experiment: Receptor preference in human neutrophils (FPR2 versus FPR1); settings: conclusion from superoxide release experiments
From the text: as §2, §3

Fpr2 [2] = target: T2, Fpr2 (Mus musculus, UniProt O88536); experiment: Inhibition of F2M2-induced superoxide release, WT mouse neutrophils; settings: mF2Pal16 500 nM; F2M2 150 nM; three independent experiments
T2 construct: WT mouse neutrophils (5 x 10^4 cells) were pre-incubated without (solid line) or with mF2Pal16; endogenous in cells; host or cells: bone marrow neutrophils of C57BL/6 wild-type mice, TNF-alpha primed
T2 sequence (O88536 1-351): T1 sequence (O88536 1-351)
From the text: as §1, with “After centrifugation at 500 × g for 30 min at 4°C in a swinging bucket rotor, the lowest band (1.085/1.095 g/mL interface) was collected as the neutrophil fraction. After washing with KRG-, remaining red blood cells were eliminated by hypotonic lysis. After a final wash with KRG-, the cells were resuspended in KRG.” left out
as §3, with “(min).” for “(min). The activity before stimulus addition was recorded as basal line and this activity was not changed in vehicle control samples.”

FPR2 [3] = experiment: Inhibition of PSMα2-induced superoxide release, human neutrophils
From the text: as §2, §3

FPR1 = experiment: Inhibition of fMLF-induced superoxide release, human neutrophils; settings: pepducin 1 μM; fMLF 50 nM
From the text: as §2, §3

## CCCCCCCCCCCCCCCC(=O)N[C@@H](CCCCN)C(=O)N[C@H](C(=O)N[C@@H](CC(N)=O)C(=O)N[C@@H](CCCNC(=N)N)C(=O)N[C@@H](CCCNC(=N)N)C(=O)N[C@@H](CC(N)=O)C(=O)N[C@@H](CC(C)C)C(=O)N[C@H](C(=O)N[C@@H](CC(N)=O)C(=O)N[C@@H](CO)C(=O)N[C@@H](CO)C(=O)N[C@@H](CCCNC(=N)N)C(=O)N1CCC[C@H]1C(=O)N[C@@H](CC(C)C)C(=O)N[C@@H](CCCNC(=N)N)C(=O)N[C@H](C(=O)O)C(C)C)C(C)C)[C@@H](C)CC [mF2Pal16] (Palmitoyl-KINRRNLVNSSRPLRV-OH; C-terminus assumed)
Mouse neutrophils
  superoxide release / activation of WT mouse neutrophils: No activation of mouse neutrophils
Human neutrophils
  superoxide release / activation of human neutrophils: did not activate human neutrophils to produce superoxide
FPR2 [1]
  receptor preference / modulation of FPR2 (versus FPR1) in human neutrophils: potent and selective inhibitor for Fpr2/FPR2; also recorded: inhibits the activity of FPR2 in human neutrophils
Fpr2 [2]
  effect on F2M2 response, mouse neutrophils: inhibitory effect
FPR2 [3]
  effect on PSMα2 response, human neutrophils: largely inhibited
FPR1
  effect on fMLF response, human neutrophils: lack of inhibitory effect
